Consider 15 molecules from patent EP3915971A1, “PHENYL-S(O)N-PHENYLAMIDINES AND THE USE THEREOF AS FUNGICIDES” (Bayer Aktiengesellschaft, priority 2020, dated 2021).

What is called chromatographic logP is a lipophilicity value derived from retention on a column. Read a low chromatographic logP as lower lipophilicity.

The series can be described thus: LogP measurement by HPLC on reversed phase columns (EEC directive 79/831 Annex V.A8). The format is physicochemical. To be noted: reversed phase HPLC columns, method [a]: LC-UV, acidic range, 0.1% formic acid in water and acetonitrile as eluent (linear gradient 10% to 95% acetonitrile). The protocol: Measurement of LogP values was performed according to EEC directive 79/831 Annex V.A8 by HPLC (High Performance Liquid Chromatography) on reversed phase columns with the following methods: • ^[a] LogP value is determined by measurement of LC-UV, in an acidic range, with 0.1% formic acid in water and acetonitrile as eluent (linear gradient from 10% acetonitrile to 95% acetonitrile). • ^[b] LogP value is determined by measurement of LC-UV, in a neutral range, with 0.001 molar ammonium acetate solution in water and acetonitrile as eluent (linear gradient from 10% acetonitrile to 95% acetonitrile). • ^[c] LogP value is determined by measurement of LC-UV, in an acidic range, with 0.1% phosphoric acid and acetonitrile as eluent (linear gradient from 10% acetonitrile to 95% acetonitrile).
If more than one LogP value is available within the same method, all the values are given and separated by "+". […]

The molecule `CCN(C)C=Nc1cc(C)c([S+]([O-])c2ccccc2C)cc1Br` (stereo not drawn) [Example I-063, N'-[2-bromo-5-methyl-4-(2-methylphenyl)sulfinylphenyl]-N-ethyl-N-methylmethanimidamide] displayed a chromatographic logP of 1.15. To `CCN(C)C=Nc1cc(Br)c([S+]([O-])c2ccccc2C#N)cc1C` (stereo not drawn) [Example I-064, N'-[5-bromo-4-(2-cyanophenyl)sulfinyl-2-methylphenyl]-N-ethyl-N-methylmethanimidamide] belongs 0.93; to `CCN(C)C=Nc1cc(C)c(S(=O)(=O)c2ccccc2C)cc1Br` [Example I-065, N'-[2-bromo-5-methyl-4-(2-methylphenyl)sulfonylphenyl]-N-ethyl-N-methylmethanimidamide], 1.93. To `CCN(C)C=Nc1cc(Br)c(S(=O)(=O)c2ccccc2C#N)cc1C` [Example I-070, N'-[5-bromo-4-(2-cyanophenyl)sulfonyl-2-methylphenyl]-N-ethyl-N-methylmethanimidamide] belongs 1.34; to `CCN(C)C=Nc1cc(C)c(S(=O)(=O)c2ccccc2F)cc1Br` [Example I-071, N'-[2-bromo-4-(2-fluorophenyl)sulfonyl-5-methylphenyl]-N-ethyl-N-methylmethanimidamide], 1.81. Regarding `CCN(C)C=Nc1cc(C)c(S(=O)(=O)c2ccccc2C)cc1C1CC1` [Example I-072, N'-[2-cyclopropyl-5-methyl-4-(2-methylphenyl)sulfonylphenyl]-N-ethyl-N-methylmethanimidamide], the chromatographic logP is 1.39. In turn, `CCN(C)C=Nc1cc(C)c([S+]([O-])c2ccccc2C)cc1C(C)C` (stereo not drawn) [Example I-073, N-ethyl-N'-[2-isopropyl-5-methyl-4-(2-methylphenyl)sulfinylphenyl]-N-methylmethanimidamide] registered a chromatographic logP of 1.18. `CCN(C)C=Nc1cc(C)c([S+]([O-])c2ccccc2C)cc1C1CC1` (stereo not drawn) [Example I-074, N'-[2-cyclopropyl-5-methyl-4-(2-methylphenyl)sulfinylphenyl]-N-ethyl-N-methylmethanimidamide] yielded a chromatographic logP of 1.07. This chromatographic logP and that of the molecule before are within 0.2 log units of each other. With `CCN(C)C=Nc1cc(C)c([S+]([O-])c2ccccc2)cc1C1CC1` (stereo not drawn) [Example I-075, N'-[4-(benzenesulfinyl)-2-cyclopropyl-5-methylphenyl]-N-ethyl-N-methylmethanimidamide], the chromatographic logP amounted to 0.9. To `CCc1cc([S+]([O-])c2ccccc2F)c(C)cc1N=CN(C)CC` (stereo not drawn) [Example I-076, N-ethyl-N'-[2-ethyl-4-(2-fluorophenyl)sulfinyl-5-methylphenyl]-N-methylmethanimidamide] belongs 1. Regarding `CCN(C)C=Nc1cc(C)c([S+]([O-])c2ccccc2)cc1Br` (stereo not drawn) [Example I-079, N'-[4-(benzenesulfinyl)-2-bromo-5-methylphenyl]-N-ethyl-N-methylmethanimidamide], the chromatographic logP turned out to be 0.93. For `CCN(C)C=Nc1cc(C)c(Sc2ccccc2)cc1Br` [Example I-080, N'-(2-bromo-5-methyl-4-phenylsulfanylphenyl)-N-ethyl-N-methylmethanimidamide], the chromatographic logP worked out at 1.75. To `CCc1cc([S+]([O-])c2ccccc2C)c(C)cc1N=CN(C)CC` (stereo not drawn) [Example I-081, N-ethyl-N'-[2-ethyl-5-methyl-4-(2-methylphenyl)sulfinylphenyl]-N-methylmethanimidamide] belongs 1.07; to `CCN(C)C=Nc1cc(C)c(Sc2ccccc2C)cc1C(F)(F)F` [Example I-083, N-ethyl-N-methyl-N'-[5-methyl-4-[(2-methylphenyl)thio]-2-(trifluoromethyl)phenyl]methanimidamide], 2.62; to `CCc1cc(S(=O)(=O)c2ccccc2F)c(C)cc1N=CN(C)CC` [Example I-084, N-ethyl-N'-[2-ethyl-4-(2-fluorophenyl)sulfonyl-5-methylphenyl]-N-methylmethanimidamide], 1.24.
